Measurements as given in article PMC4593522, “Development of a Radiolabeled Peptide-Based Probe Targeting MT1-MMP for Breast Cancer Detection” (PLoS ONE, 2015).
Square brackets hold non-standard residues; d marks the D form. Peptide text beside a SMILES is read from it. * marks the point of attachment. HYNIC = NNc1ccc(C(=O)*)cn1; AEEA = NCCOCCOCC(=O)O

Tests used:
[1] = Partition coefficient (Log P), n-octanol / phosphate buffer; type: physicochemical; details: shake-flask, equal volume mixture of n-octanol and phosphate buffer (25 mM, pH = 7.4); mean ± SD
Method: [^99mTc]-(HYNIC-AF7P)(tricine)(TPPTS) was prepared in two steps. First, HYNIC-AF7P was synthesized (Fig 1) and reacted with Na^99mTcO4 in the presence of excess tricine and SnCl2 to form the intermediate [^99mTc]-(HYNIC-AF7P)(tricine)2, which was then allowed to react with TPPTS to form the ternary ligand complex [^99mTc](HYNIC-AF7P)(tricine)(TPPTS). […] The HPLC retention time was 9.2 min for [^99mTc](HYNIC-AF7P)(tricine)(TPPTS) and the specific activity of final product was 1200 mCi/μmol. The partition coefficient of [^99mTc]-(HYNIC-AF7P)(tricine)(TPPTS) was determined in an equal volume mixture of noctanoland phosphate buffer (25 mM, pH = 7.4). Log P value of [^99mTc]-(HYNIC-AF7P)(tricine)(TPPTS)was -2.39±0.06.

[2] = In vitro solution stability in saline (radio-HPLC); type: physicochemical; details: 0.9% physiological saline, 37°C, 100 μL tracer in 400 μL total, mean ± SD
Method: HYNIC-AF7p solution (20 μL, 60 μg/mL in H2O), of tricine solution (100 μL, 100 mg/mL in 25 mM succinate buffer, pH 5.0), SnCl2 solution (10 μL, 3 mg/mL in 0.1 M HCl) and Na^99mTcO4 (100 μL, 370 MBq) in saline were added into a 5 mL Eppendorf tube. The reaction mixture was kept at room temperature for 10 min. To the reaction mixture above was added 100 μL of the TPPTS solution (50 mg/mL in 25 mM succinate buffer, pH 5.0). The vial containing the reaction mixture was sealed, cramped, and heated at 90°C for 30 min. After cooling to room temperature, sample was analyzed by radio-HPLC. The radio-HPLC method used a HP Hewlett Packard Series 1100 HPLC system equipped with a Radioflow Detector LB509 and a reversed-phase Zorbax SB-C18 column (4.6 mm × 250 mm, 5 μm). The flow rate was 1 mL/min. The gradient mobile phase started with 90% solvent A (0.1% TFA in water) and 10% solvent B (0.1% TFA in acetonitrile) to 30% solvent A and 70% solvent B at 24 min to 0% solvent A and 100% solvent B at 27 min, followed with 90% solvent A and 10% solvent B at 30 min. […]
100 μL of [^99mTc]-(HYNIC-AF7P)(tricine)(TPPTS) was added to either 0.9% physiological saline or 1 mg/mL cysteine solution. […] After 1 h, 2 h, 3 h, 4 h, 5 h and 6 h incubation, the radiochemical purity for [^99mTc]-(HYNIC-AF7P)(tricine)(TPPTS) at each time point was detected by radio-HPLC as described above.

[3] = tested on: MT1-MMP-positive MDA-MB-231 tumor; experiment: SPECT imaging of MDA-MB-231 tumor-bearing mice; type: in vivo; details: mean ± SD; for tumor uptake (SPECT ROI), blocking: 200 μg unlabeled AF7P injected 30 min ahead of tracer; for tumor uptake (SPECT ROI), unblocked: i.v.
Method: (§1) All animal experiments were approved by Jilin University Health Science Center Animal Care and Use Committee. Human breast carcinoma cell line MDA-MB-231 with high MT1-MMP expression and human lung adenocarcinomaepithelial cell line A549 with low MT1-MMP expression were cultured in DMEM medium containing 10% (v/v) fetal bovine serum (Invitrogen) supplemented with penicillin (100 μg/mL) and streptomycin (100 μg/mL) at 37°C with 5% CO2. MDA-MB-231 and A549 tumor models were established by subcutaneous injection of 5×10^6 cells into the upper right front flank of female athymic nude mice (Department of Experimental Animal, Peking University Health Science Center). Tumor growth was monitored by caliper measurements three times a week after the tumors are palpable. The mice were used for SPET/CT imaging when the tumor volume reached about 200 mm3 (about 14 days after tumor inoculations). The tumor volume was determined as the formula: V = a × (b^2)/2, where a and b are the length and width of each tumor in mm respectively. During the injection and image acquisition process, the mice were anesthetized with 2.5% isoflurane in oxygen delivered at a flow rate of 1.5 L/min.
(§2) The imaging study was performed using the female BALB/c nude mice bearing the MDA-MB-231 tumors and A549 tumors. Each tumor-bearing mouse was administered intravenously with [^99mTc]-(HYNIC-AF7P)(tricine)(TPPTS) (22.2 MBq/mice) in 0.1 mL saline. For blocking test, 200 μg free AF7P was intravenously injected into MDA-MB-231 tumor bearing mice 30 min before [^99mTc]-(HYNIC-AF7P)(tricine)(TPPTS) was injected. Animals were placed prone on a two-head γ-camera (SIEMENS, E. CAM) equipped with a parallel-hole, low-energy, and high-resolution collimator. Posterior images were acquired at 0.5, 2 and 4 hours post injection (p.i.). The acquisition count limits were set at 700k. After completion of imaging, animals were sacrificed by cervical dislocation.

[4] = tested on: A549 tumor (little MT1-MMP); experiment: SPECT imaging of A549 tumor-bearing mice; type: in vivo; details: i.v., A549 tumor bearing model, mean ± SD
Method: as §1, §2

For `CC(C)C[C@H](NC(=O)[C@H](Cc1ccccc1)NC(=O)[C@@H](NC(=O)[C@H](CCCCN)NC(=O)[C@@H](NC(=O)[C@H](CC(N)=O)NC(=O)[C@H](Cc1c[nH]cn1)NC(=O)[C@H](CC(C)C)NC(=O)[C@H](Cc1c[nH]cn1)NC(=O)[C@H](CCCCN)NC(=O)[C@H](Cc1c[nH]c2ccccc12)NC(=O)[C@H](Cc1c[nH]cn1)NC(=O)c1ccc(NN)nc1)[C@@H](C)O)[C@@H](C)O)C(=O)NCCOCCOCC(=O)O` [[^99mTc]-(HYNIC-AF7P)(tricine)(TPPTS), metal not drawn] ({HYNIC}-HWKHLHNTKTFL[AEEA]-OH), the “Log P value (partition coefficient)” value [1] was -2.39±0.06, the “original form (radiochemical purity) in saline” value ([2]; after 6 hours incubation) was 93.5 ± 2.27% and the “original form (radiochemical purity) in saline” value ([2]; at the beginning) was 96.8 ± 1.12%. For the same compound, the “tumor uptake (SPECT ROI), blocking” value ([3]; 0.5 h p.i.) was 1.15±0.05 %ID/g, the “tumor uptake (SPECT ROI), unblocked” value ([3]; 0.5 h p.i.) was 4.15±0.27 %ID/g and the “tumor uptake (SPECT ROI), blocking” value ([3]; 2 h p.i.) was 1.05±0.12 %ID/g. For the same compound, the “tumor uptake (SPECT ROI), unblocked” value ([3]; 2 h p.i.) was 2.58±0.21 %ID/g, the “tumor uptake (SPECT ROI), blocking” value ([3]; 4 h p.i.) was 1.03±0.34 %ID/g and the “tumor uptake (SPECT ROI), unblocked” value ([3]; 4 h p.i.) was 1.59±0.11 %ID/g. For the same compound, the “tumor uptake (SPECT ROI), A549 tumor” value ([4]; 0.5 h p.i.) was 1.35±0.11 %ID/g, the “tumor uptake (SPECT ROI), A549 tumor” value ([4]; 4 h p.i.) was 1.01± 0.00 %ID/g and the “tumor uptake (SPECT ROI), A549 tumor” value ([4]; time point not printed (between 0.5 h and 4 h)) was 1.03±0.05 %ID/g.
